# Data from patent US11254676B2, “Pyrazole derivative compound and use thereof” (HANMI PHARM. CO., LTD., priority 2017, dated 2022).
# Test system: NCI-H1417 cells
# Assay: Cell growth suppression test, CellTiter-Glo Luminescent Cell Viability Assay
# Assay type: cell-based
# Details: Homo sapiens, 240 h; NCI-H1417 cells treated for 10 days
# Description: Cell growth suppression effects of the synthesized compounds on NCI-H1417 cells were identified. The cells were treated with the synthesized compounds for 10 days. Then, in order to test the cell growth suppression, CellTiter-Glo Luminescent Cell Viability Assay (available from Promega, USA) was used. This test is to measure emission signals proportional to the number of ATPs based on a fixed amount of ATPs, which represents the presence of metabolically active cells, thereby determining the number of viable cells. The results are expressed as a GI50 value. As for a control, GSK2879552 (available from GlaxoSmithKline USA) was used.
row,Structure (SMILES),GI50
1,"CN[C@@H]1CCCN(C(=O)c2cc(-c3ccc(C#N)c(F)c3)n(-c3ccc(C4CC4)cc3F)n2)C1 [Example 6, (R)-4-(1-(4-cyclopropyl-2-fluorophenyl)-3-(3-(methylamino)piperidine-1-carbonyl)-1H-pyrazole-5-yl)-2-fluorobenzonitrile]",48 nM
2,"O=C(O)c1ccc(CN2CCC(CN[C@@H]3C[C@H]3c3ccccc3)CC2)cc1 [Control, GSK2879552, reference compound]",591 nM
3,"CC(C)c1ccc(-n2nc(C(=O)N3CCCC[C@@H](N)C3)cc2-c2ccc(C#N)c(F)c2)c(F)c1 [Example 39, (R)-4-(3-(3-aminoazepane-1-carbonyl)-1-(2-fluoro-4-isopropylphenyl)-1H-pyrazole-5-yl)-2-fluorobenzonitrile]",139 nM
4,"N#Cc1ccc(-c2cc(C(=O)N3CCC[C@@H](N)C3)nn2-c2c(F)cc(C3CC3)cc2F)cc1F [Example 10, (R)-4-(3-(3-aminopiperidine-1-carbonyl)-1-(4-cyclopropyl-2,6-difluorophenyl)-1H-pyrazole-5-yl)-2-fluorobenzonitrile]",108 nM
5,"CC(C)c1ccc(-n2nc(C(=O)N3CCC[C@@H](N)C3)cc2-c2ccc(C#N)cc2)c(F)c1 [Example 37, (R)-4-(3-(3-aminopiperidine-1-carbonyl)-1-(2-fluoro-4-isopropylphenyl)-1H-pyrazole-5-yl) benzonitrile]",215 nM
6,"N#Cc1ccc(-c2cc(C(=O)N3CCC[C@@H](N)C3)nn2-c2ccc(C3CC3)cc2)cc1 [Example 1, (R)-4-(3-(3-aminopiperidine-1-carbonyl)-1-(4-cyclopropylphenyl)-1H-pyrazole-5-yl)benzonitrile]",94 nM
7,"CN[C@@H]1CCCN(C(=O)c2cc(-c3ccc(C#N)c(F)c3)n(-c3ccc(N4CCCC4)cc3F)n2)C1 [Example 59, (R)-2-fluoro-4-(1-(2-fluoro-4-(pyrrolidine-1-yl)phenyl)-3-(3-(methylamino)piperidine-1-carbonyl)-1H-pyrazole-5-yl)benzonitrile]",9.7 nM
8,"N#Cc1ccc(-c2cc(C(=O)N3CCC[C@@H](N)C3)nn2-c2ccc(N3CCCC3)cc2F)cc1 [Example 57, (R)-4-(3-(3-aminopiperidine-1-carbonyl)-1-(2-fluoro-4-(pyrrolidine-1-yl)phenyl)-1H-pyrazole-5-yl)benzonitrile]",45 nM
9,"N#Cc1ccc(-c2cc(C(=O)N3CCC[C@@H](N)C3)nn2-c2c(F)cc(N3CCCC3)cc2F)cc1F [Example 74, (R)-4-(3-(3-aminopiperidine-1-carbonyl)-1-(2,6-difluoro-4-(pyrrolidine-1-yl)phenyl)-1H-pyrazole-5-yl)-2-fluorobenzonitrile]",8.8 nM
10,"CN(C)c1ccc(-n2nc(C(=O)N3CCC[C@@H](N)C3)cc2-c2ccc(C#N)cc2)c(F)c1 [Example 54, (R)-4-(3-(3-aminopiperidine-1-carbonyl)-1-(4-(dimethylamino)-2-fluorophenyl)-1H-pyrazole-5-yl)benzonitrile]",84 nM
11,"CC(C)c1ccc(-n2nc(C(=O)N3CCC[C@@H](N)C3)cc2-c2ccc(C#N)c(F)c2)c(F)c1 [Example 38, (R)-4-(3-(3-aminopiperidine-1-carbonyl)-1-(2-fluoro-4-isopropylphenyl)-1H-pyrazole-5-yl)-2-fluorobenzonitrile]",79 nM
12,"CN[C@@H]1CCCN(C(=O)c2cc(-c3ccc(C#N)cc3)n(-c3ccc4c(c3)CCC4)n2)C1 [Example 89, (R)-4-(1-(2,3-dihydro-1H-inden-5-yl)-3-(3-(methylamino)piperidine-1-carbonyl)-1H-pyrazole-5-yl)benzonitrile]",71 nM
13,"N#Cc1ccc(-c2cc(C(=O)N3CCC[C@@H](N)C3)nn2-c2ccc(N3CCCC3)cc2Cl)cc1F [Example 75, (R)-4-(3-(3-aminopiperidine-1-carbonyl)-1-(2-chloro-4-(pyrrolidine-1-yl)phenyl)-1H-pyrazole-5-yl)-2-fluorobenzonitrile]",52 nM
14,"CN[C@@H]1CCCN(C(=O)c2cc(-c3ccc(C#N)c(F)c3)n(-c3ccc(N4CC[C@@H](OC)C4)cc3F)n2)C1 [Example 70, 2-fluoro-4-(1-(2-fluoro-4-((R)-3-methoxypyrrolidine-1-yl)phenyl)-3-((R)-3-(methylamino)piperidine-1-carbonyl)-1H-pyrazole-5-yl)benzonitrile]",18 nM
15,"CO[C@H]1CCN(c2ccc(-n3nc(C(=O)N4CCC[C@@H](N)C4)cc3-c3ccc(C#N)c(F)c3)c(F)c2)C1 [Example 67, 4-(3-((R)-3-aminopiperidine-1-carbonyl)-1-(2-fluoro-4-((S)-3-methoxypyrrolidine-1-yl)phenyl)-1H-pyrazole-5-yl)-2-fluorobenzonitrile]",30 nM
16,"CC(C)(C)c1ccc(-n2nc(C(=O)N3CCC[C@@H](N)C3)cc2-c2ccc(C#N)cc2)c(F)c1 [Example 42, (R)-4-(3-(3-aminopiperidine-1-carbonyl)-1-(4-(tert-butyl)-2-fluorophenyl)-1H-pyrazole-5-yl)benzonitrile]",226 nM

# Biological target: LSD1 (Homo sapiens (Human), UniProt O60341)
# Assay: LSD1 histone demethylase inhibition, LSD1 fluorescence analysis kit (BPS Bioscience)
# Assay type: biochemical
# Details: H2O2/HRP/Amplex Red fluorescence readout
# Description: The results are expressed as an IC50 value. As for a control, GSK2879552 (available from GlaxoSmithKline USA) was used.
row,IC50,Structure (SMILES)
1,21 nM,"CN[C@@H]1CCCN(C(=O)c2cc(-c3ccc(C#N)c(F)c3)n(-c3ccc(C4CC4)cc3F)n2)C1 [Example 6, (R)-4-(1-(4-cyclopropyl-2-fluorophenyl)-3-(3-(methylamino)piperidine-1-carbonyl)-1H-pyrazole-5-yl)-2-fluorobenzonitrile]"
2,311 nM,"O=C(O)c1ccc(CN2CCC(CN[C@@H]3C[C@H]3c3ccccc3)CC2)cc1 [Control, GSK2879552, reference compound]"
